Data published in US4028396A, “16,16-Spirocycloalkyl prostaglandin derivatives” (American Cyanamid Company, priority 1975, dated 1977).

Legend:
[1] = system: basal gastric acid secretion; assay: inhibition of gastric acid secretion in the acute gastric fistula rat; type: in vivo, Female Sprague-Dawley rats; details: oral
[2] = system: bronchospasms elicited by acetylcholine; assay: bronchodilator activity, Konzett procedure, acetylcholine bronchospasm; type: in vivo, guinea pigs; details: Cavia porcellus; three logarithmic cumulative intravenous doses; spasmogen acetylcholine
Description: (§1) The compounds of this invention are useful as bronchodilators for the treatment of asthma and chronic bronchitis. Bronchodilator activity is determined in guinea pigs against bronchospasms elicited by intravenous injections of 5-hydroxytryptamine, histamine or acetylcholine by the Konzett procedure. [See J. Lulling, P. Lievens, F. El Sayed and J. Prignot, Arzneimittel-Forschung, 18, 955 (1968).]
(§2) In Table A which follows bronchodilator activity for representative compounds of this invention against one or more of three spasmogenic agents is expressed as an ED50 determined from the results obtained with three logarithmic cumulative intravenous doses.

[3] = system: bronchospasms elicited by 5-hydroxytryptamine; assay: bronchodilator activity, Konzett procedure, 5-hydroxytryptamine bronchospasm; type: in vivo, guinea pigs; details: Cavia porcellus; three logarithmic cumulative intravenous doses; spasmogen 5-hydroxytryptamine
Description: as §1, §2

[4] = system: basal gastric acid secretion; assay: inhibition of gastric acid secretion in the acute gastric fistula rat; type: in vivo, Female Sprague-Dawley rats; details: 10 mg./kg., intraduodenal
Description: The compounds of this invention are also useful as inhibitors of gastric acid secretion and peptic ulcer formation and may be used for the treatment of gastric hyperacidity, gastric erosion, and peptic ulcer. Inhibition of basal gastric acid secretion can be determined by the following procedure.
Female Sprague-Dawley rats weighing 140-160 grams are fasted in individual cages for 18-24 hours. The rats are then lightly anesthetized with ether and their front teeth extracted to avoid destruction of the plastic cannula. A midline incision is then made and the stomach and duodenum exposed. A flanged polyvinyl tube is inserted into the fundic portion of the stomach and secured with a purse string suture line using 4-0 Mersilene. The rat is then dosed by injection of the compound into the duodenum (1.0 ml. per 100 gram body weight). After dosing, the abdominal wall and skin are closed using metal wound clips. The rat is replaced in a cage containing a longitudinal slit to allow the polyvinyl tube to hang freely. An 8 ml. plastic collecting tube is attached to the flanged cannula and hangs freely below the cage. The first 30 minute sample is discarded designating this time as zero. The collecting tube is attached again and samples removed at the end of 60 and 120 minutes. The hourly samples are then transferred to a 15 ml. centrifuge and centrifuged for 5-10 minutes. Total and sediment volume are then recorded with supernatant volume being used as volume of secretion. A 1 ml. or less aliquot is then removed and placed in a 50 ml. beaker containing 10 ml. of distilled water. This sample is then titrated using 0.01N NaOH to pH 7.0 using a Beckman zeromatic pH meter. Volume, tritratable acidity (meq/L) and total acid output (ueg/hour) are recorded. Percent inhibition is determined by comparison with the appropriate control. Groups of three rats were used for preliminary testing, and groups of six rates were used for dose-response evaluations. All compounds are administered in a vehicle consisting of 0.5% methocel, 0.4% tween 80, and saline at a constant volume of 1 ml./100 gram rat. Samples are dispersed by sonification. Percent inhibition is calculated on basis of concurrent vehicle control.
In Table B which follows is given the effect on total acid output after 60 minutes (response A) and 120 minutes (response B) for various doses of representative compounds of this invention.

[5] = system: bronchospasms elicited by histamine; assay: bronchodilator activity, Konzett procedure, histamine bronchospasm; type: in vivo, guinea pigs; details: Cavia porcellus; three logarithmic cumulative intravenous doses; spasmogen histamine
Description: as §1, §2

[6] = system: gastric acid output stimulated by gastrin tetrapeptide; assay: gastric fistula dog, gastric acid output stimulated by gastrin tetrapeptide; type: in vivo; details: oral, 0.16 mg./kg., % of the control output
Description: (§3) With the former agent a dose of 0.16 mg./kg. is sufficient to inhibit more than 50% of the control output.

[7] = system: gastric acid output stimulated by histamine; assay: gastric fistula dog, gastric acid output stimulated by histamine; type: in vivo; details: oral
Description: as §3

[8] = system: systemic arterial blood pressure; details: in vivo; cited from earlier work
smooth muscle = details: cited from earlier work
[9] = system: mobilization of free fatty acids; details: cited from earlier work
[10] = cited from earlier work

| Compound | %-Inhibition of Total Acid Output ([1]; 10 mg./kg., after 60 min.) [%] | %-Inhibition of Total Acid Output ([1]; 10 mg./kg., after 120 min.) [%] | ED50 [2] [mg/kg] | ED50 [3] [mg/kg] | %-Inhibition of Total Acid Output ([4]; after 60 min.) [%] | %-Inhibition of Total Acid Output ([4]; after 120 min.) [%] | ED50 [5] [mg/kg] | other results |
| --- | --- | --- | --- | --- | --- | --- | --- | --- |
| CCCCC1([C@@H](O)/C=C/[C@H]2CCC(=O)[C@@H]2CCCCCCC(=O)O)CCC1 (relative stereo) [9-oxo-15-epi-hydroxy-16,16-trimethylene-13-trans-prostenoic acid] | 85 | 61 | 0.003 | 0.135 | 98 | 92 | 0.014 | – |
| CCCCC1([C@H](O)/C=C/[C@H]2CCC(=O)[C@@H]2CCCCCCC(=O)O)CCC1 (relative stereo) [9-oxo-15-hydroxy-16,16-trimethylene-13-trans-prostenoic acid] | – | – | 0.048 | 0.02 | 98 | 75 | 0.0024 | %-Inhibition of Total Acid Output ([1]; 2.5 mg./kg., after 60 min.): 86%; %-Inhibition of Total Acid Output ([1]; 2.5 mg./kg., after 120 min.): 83% |
| CCCCC1([C@H](O)/C=C/[C@H]2[C@H](O)CC(=O)[C@@H]2C/C=C\CCCC(=O)O)CCC1 (relative stereo) [11α,15-dihydroxy-9-oxo-16,16-trimethylene-5-cis,13-trans-prostadienoic acid] | 100 | 100 | 0.0011 | 0.0025 | 100 | 100 | 0.0015 | %-Inhibition of Total Acid Output ([1]; 0.63 mg./kg., after 60 min.): 30%; %-Inhibition of Total Acid Output ([1]; 0.63 mg./kg., after 120 min.): 35%; %-Inhibition of Total Acid Output ([1]; 1.25 mg./kg., after 60 min.): 40%; %-Inhibition of Total Acid Output ([1]; 1.25 mg./kg., after 120 min.): 36%; %-Inhibition of Total Acid Output ([1]; 2.5 mg./kg., after 60 min.): 87%; %-Inhibition of Total Acid Output ([1]; 2.5 mg./kg., after 120 min.): 74%; inhibition of gastric acid output stimulated by gastrin tetrapeptide [6]: more than 50%; inhibition of the stimulation of gastric acid output by histamine [7]: will inhibit the stimulation of gastric acid output |
| CCCCC1([C@@H](O)/C=C/[C@H]2[C@H](O)CC(=O)[C@@H]2C/C=C\CCCC(=O)O)CCC1 (relative stereo) [11α,15-epi-dihydroxy-9-oxo-16,16-trimethylene-5-cis,13-trans-prostadienoic acid] | 32 | 39 | 0.032 | 0.305 | 98 | 86 | 0.048 | – |
| CCCCC1([C@@H](O)/C=C/[C@H]2CCC(=O)[C@@H]2CCCCCCC(=O)OCC)CCC1 (relative stereo) [ethyl 15-epi-hydroxy-9-oxo-16,16-trimethylene-13-trans-prostenoate] | 77 | 67 | – | – | 98 | 87 | – | – |
| CCCCC1([C@H](O)/C=C/[C@H]2CCC(=O)[C@@H]2CCCCCCC(=O)OCC)CCC1 (relative stereo) [ethyl 15-hydroxy-9-oxo-16,16-trimethylene-13-trans-prostenoate] | 48 | 38 | – | – | 100 | 100 | – | – |
| CCCCC[C@H](O)/C=C/[C@H]1[C@H](O)CC(=O)[C@@H]1CCCCCCC(=O)O [PGE1] | – | – | – | – | – | – | – | potency in causing vasodepression [8]: extremely potent; potency in causing smooth muscle stimulation (smooth muscle): extremely potent; potency as antilipolytic agent [9]: potent |
| CCCCC[C@H](O)/C=C/[C@H]1[C@H](O)CC(=O)[C@@H]1C/C=C\CCCC(=O)O [prostaglandin E2] | – | – | – | – | – | – | – | potency in causing vasodepression [8]: extremely potent; potency in causing smooth muscle stimulation (smooth muscle): extremely potent; time within which the solution must be used ([10]; room temperature): one day; time within which saline solution should preferably be used ([10]; saline solution stored at 40° C. (so in the source), preferably): 2 to 3 days; time within which saline solution should be used ([10]; saline solution stored at 40° C. (so in the source)): a week; decrease in biological activity on storage ([10]; ten days storage at 4° C., concentration 100 mg./ml.): significant decrease; potency as antilipolytic agent [9]: potent |
